Experimental data as given in patent US20220117920A1, “N-Aryl Benzenesulfonamides as Protonophores for the Treatment of Cancers, Metabolic Diseases and Traumatic Brain Injury” (University of Kentucky Research Foundation, priority 2019, published 2022).

How the values were obtained:
AMPK = test: Western blot of AMPK (T172) and ACC (S79) phosphorylation in CRC cells; format: cell-based, human
Description: Biochemistry. Western blotting: Cells were lysed in the appropriate volume of lysis buffer: 50 mM HEPES, 100 mM NaCl, 2 mM EDTA, 1% (v/v) glycerol, 50 mM NaF, 1 mM Na3VO4, 1% (v/v) Triton X-100, with protease inhibitors. The following antibodies were used: AMPK (Cell Signaling, 2532, Cell Signaling Technologies, Danver, Mass., USA), pAMPK (Cell Signaling, 2535), ACC (Cell Signaling, 3676), pACC (Cell Signaling, 11818), Actin (Sigma, A1978). Antibodies for Axin 2, c-Myc and Cyclin D1 have been described previously. ATP analysis: Cells growing in 12-well plates were treated with DMSO or inhibitors in DMSO solution and lysed by adding 1 mL boiling doubly distilled water. Supernatants were analyzed by luminescence using ATP Determination Kit (Invitrogen, A22066; Thermo Fisher Scientific, Waltham, Mass., USA).

[1] = system: mitochondrial ATP production; test: Agilent Seahorse XF Real-Time ATP Rate Assay; format: cell-based, human; settings: 3 μM
Description: Seahorse assay. Approximately 3×10^4 cells were seeded in XF96 Cell Culture microplate (80 μL of 3.75×10^5 cells/mL) for all experiments. On the next day, cell culture media were replaced with either Seahorse XF modified media with 25 mM glucose and 1 mM pyruvate. After media exchange, cells were treated with 1 μM of oligomycin A, 1.0 μM FCCP and mixture of 1.0 μM of rotenone and 1.0 μM of antimycin A in standard mitochondrial stress test conditions. To determine the uncoupler effects, FCCP was replaced with an equal volume of DMSO, or a compound to be tested in DMSO solution. ATP production rate was analyzed using Agilent Seahorse XF Real-Time ATP Rate Assay.

[2] = Gross-toxicity assay in mice; format: in vivo; settings: intraperitoneal injections up to 15 mg/kg for 5-6 weeks
Description: FIGS. 20A-D show graphs and images illustrating FH535 effect in vivo. (A) Mice body weight after FH535 treatment. C57BL/6 mice (n=5) were treated by intraperitoneal injection with 15 mg/Kg of FH535 or DMSO vehicle control every 4 days for 6 weeks. Mice were monitored before injections for signs of body weight loss, impaired mobility, labored breathing and body score based on the Ullman-Culleré MH, Foltz CJ method. (B-D) FH535 reduces tumor growth in vivo in a xenograft tumor model. Huh7 cell were injected subcutaneously on the right flank of athymic nude mice. FH535 (15 mg/Kg) or vehicle (DMSO) were administrated by intraperitoneal injection every other day when tumor size reached 100 mm^3. (B) Tumor growth was monitored every other day until day 10 of starting treatments when mice were euthanized according to the AVMA guidelines, *p<0.05 (n=5, each group); (C) Tumor weight of excised tumors after 10 day treatment with FH535 reduced the tumor weight in 42±8% compared to vehicle treatment, **p<0.001 (n=4, each group). (D) H&E and ki67 stainings from one representative tumor of each group treatment. Pictures were taken at 400× magnification.
To validate further the in vivo anti-tumor effect of FH535, we performed a gross-toxicity assay in mice with FH535 doses ranging from 0 to 30 mg/kg. […] Next, we evaluated the in vivo anti-tumor activity of FH535 in a Huh7 tumor xenograft model. […]

Huh7 tumor xenograft = Huh7 tumor xenograft model in athymic nude mice; format: in vivo
Description: All animal experiments were performed in accord with the guidelines, rules and recommendations and was approved by the University of Kentucky Institutional Animal Care and Use Committee after approval (IACUC). Three- to four-weeks old female athymic nude mice (nu/nu, The Jackson Laboratory, USA) were housed in a pathogen-free environment at the Division of Laboratory Animal Resources of the Chandler Medical Center, University of Kentucky. To generate in vivo tumors, Huh7 culture cells in mid-log phase growth were collected and re-suspended in a 50% mixture of Matrigel (BD Biosciences, USA) in serum-free medium to a final concentration of 6×10^7 cells per mL. A volume of 0.1 mL of the cell suspension was injected subcutaneously in the right flank of each mouse. Mice were weighed and checked for tumor growth every other day. When tumors reached a volume of 100 mm^3, mice were randomly divided into two groups of 5: vehicle control group and FH535 group (receiving 15 mg of FH535/kg/day from a stock prepared in dimethyl sulfoxide (DMSO) at 21.7 mg/mL and diluted in serum-free medium to a final concentration of 40% DMSO). Vehicle and FH535 were administered by intraperitoneal injection every other day. Tumors were measured using an optical caliper and tumor size was calculated using the formula: 0.5×length×(width)^2. Mice were euthanized at the end of the experiment or when reaching humane end-point following AVMA guidelines. Humane end-points included animals with tumors exceeding 20 mm in maximum diameter, with ulcerated tumors, more than 20% body weight loss, impaired mobility, labored breathing or with a body condition score below 2.
Tumors from the xenograft model were formaldehyde fixed and paraffin-embedded and were used to performed H&E staining and immunohistochemistry of Ki-67 according to standard procedures.

p62 = test: RT-qPCR of p62 mRNA in Huh7 cells; format: cell-based, human; settings: Huh7, absence of CQ
Description: Total RNA was extracted with miRNeasy mini kit (Qiagen, Germany), and the corresponding cDNA was produced using iScript cDNA synthesis kit (BioRad, USA) from 1 μg of total RNA. Real time quantitative PCR (RT-qPCR) was performed using SsoAdvanced Universal SYBR Green supermix (BioRad, USA) with specific primers: p62 (SQSTM1: 5′-[…]-3′ (SEQ ID NO: 1) and 5′-[…]-3′ (SEQ ID NO: 2)); c-MYC (cMYC: 5′-[…]-3′ (SEQ ID NO: 3) and 5′-[…]-3′ (SEQ ID NO: 4)), Survivin (BIRC5, 5′-[…]-3′ (SEQ ID NO: 5) and 5′-[…]-3′ (SEQ ID NO: 6)), AXIN 2 (AXIN2: 5′-[…]-3′ (SEQ ID NO: 7) and 5′-[…]-3′ (SEQ ID NO: 8)), Cyclin D1 (5′-CCND1: […]-3′ (SEQ ID NO: 9) and 5′-[…]-3′ (SEQ ID NO: 10)), and b2-microglobulin (B2M: 5′-[…]-3′ (SEQ ID NO: 11) and 5′-[…]-3′ (SEQ ID NO: 12)). Transcript levels were normalized to β-actin or […] level as indicated using the ΔΔCt method.

## Cc1cc([N+](=O)[O-])ccc1NS(=O)(=O)c1cc(Cl)ccc1Cl [FH535, 2,5-dichloro-N-(2-methyl-4-nitrophenyl)benzenesulfonamide]
AMPK
  time to AMPK activation after treatment: ≤ 15 min
AMPK; 3 μM
  ACC (S79 phosphorylation): induced AMPK phosphorylation and ACC phosphorylation
  AMPK activity (T172 phosphorylation): activated AMPK
[1]
  rate of ATP production in mitochondria: decreased the rates of ATP production in mitochondria
[2]
  signs of body distress or toxicity (weight loss, ambulatory ability, respiration, dehydration): did not induce major signs of body distress or toxicity
Huh7 tumor xenograft; 15 mg/Kg i.p. every other day, 10 day treatment
  reduction of tumor weight compared to vehicle: 42±8%
Huh7 tumor xenograft; 15 mg/kg every other day, after four days of treatment, p<0.05
  tumor volume compared to control group: significantly reduced
Huh7 tumor xenograft; excised tumors, same in control group
  proliferation index (Ki-67): greater than 95%
p62
  p62 mRNA levels: increase of p62 mRNA levels
